Source: patent US12600713B2, “Crystalline forms of 6-((6,7-dimethoxyquinazolin-4-yl)oxy)-N,2-dimethylbenzofuran-3-carboxamide” (HUTCHMED LIMITED, priority 2014, dated 2026)

Experiment: Stability of Form I under high temperature, high humidity and illumination conditions (influence factor experiment, 10 days)
Type: physicochemical
Description: Determination method: the test sample of Form I prepared in Example 1 was added to a culture dish, which was uncovered and put in a sealed clean container; then the container was placed under the conditions of the temperature of 60° C., the temperature of 25° C. and the relative humidity of 92.5%±5%, and the illumination of 4500 lx±500 lx respectively for 10 days; then sampled, investigated the purity and crystalline form of the sample, and compared the results of the investigation, which were shown in the following table.

Purity A% (0 day (initial sample, Form I of Example 1)): 98.94 A%
Purity A% (25° C., relative humidity 92.5 ± 5% RH, open dish, 10 days): 98.94 A%
Purity A% (60° C., open dish, 10 days): 98.94 A%
chemical purity and crystalline form after storage (stability conclusion) (high temperature, high humidity and illumination conditions for 10 days): not changed
Purity A% (illumination 4500 lx ± 500 lx, open dish, 10 days): 98.94 A%
SMILES: CNC(=O)c1c(C)oc2cc(Oc3ncnc4cc(OC)c(OC)cc34)ccc12 [Form I, 6-((6,7-dimethoxyquinazolin-4-yl)oxy)-N,2-dimethylbenzofuran-3-carboxamide]
